Measurements reported in the NIST ThermoML archive (doi:10.1016/j.fluid.2009.05.007).
Numbers after ± are expanded uncertainties. Values belong to the compound of their own block, whether it stands above or below them.

Assay: activity coefficient (dimensionless); of the first substance listed, at infinite dilution; xn = mol fraction of the nth substance listed
Settings: 101 kPa, Liquid, dilutor technique, x1 = 0

Structure (SMILES): CCCCCCC [heptane] + CCCCCCn1cc[n+](C)c1.F[B-](F)(F)F
activity coefficient (303.16 K): 45 ± 2.2 | activity coefficient (318.14 K): 42 ± 2.1 | activity coefficient (323.27 K): 41.1 ± 2 | activity coefficient (333.11 K): 38.9 ± 1.9 | activity coefficient (343.09 K): 36.8 ± 1.8

Structure (SMILES): C=CCCCCCCCC [1-decene] + CCCCCCn1cc[n+](C)c1.F[B-](F)(F)F
activity coefficient (318.2 K): 54.6 ± 2.7 | activity coefficient (328.16 K): 48.7 ± 2.4 | activity coefficient (338.17 K): 46 ± 2.3

Structure (SMILES): CCCCCCCCC [nonane] + CCCCn1cc[n+](C)c1.F[B-](F)(F)F
activity coefficient (323.12 K): 334 ± 17 | activity coefficient (343.21 K): 270 ± 14 | activity coefficient (353.16 K): 225 ± 11

Structure (SMILES): CCCCCCCCC [nonane] + CCCCCCn1cc[n+](C)c1.F[B-](F)(F)F
activity coefficient (318.21 K): 88 ± 4.4 | activity coefficient (328.16 K): 81.2 ± 4.1 | activity coefficient (338.14 K): 76.7 ± 3.8 | activity coefficient (348.16 K): 72.9 ± 3.6

Structure (SMILES): C=CCCCCC [1-heptene] + CCCCCCn1cc[n+](C)c1.F[B-](F)(F)F
activity coefficient (318.11 K): 19.6 ± 0.98 | activity coefficient (328.19 K): 19.3 ± 0.97 | activity coefficient (338.14 K): 18.8 ± 0.94 | activity coefficient (348.11 K): 18 ± 0.9

Structure (SMILES): CCCCCCCC [octane] + CCCCn1cc[n+](C)c1.F[B-](F)(F)F
activity coefficient (323.16 K): 170 ± 8.5 | activity coefficient (328.16 K): 160 ± 8 | activity coefficient (333.14 K): 155 ± 7.7 | activity coefficient (338.14 K): 146 ± 7.3 | activity coefficient (343.22 K): 143 ± 7.1

Structure (SMILES): CCCCCCC [heptane] + CCCCn1cc[n+](C)c1.F[B-](F)(F)F
activity coefficient (323.16 K): 95.8 ± 4.8 | activity coefficient (328.16 K): 89 ± 4.5 | activity coefficient (333.14 K): 83.8 ± 4.2 | activity coefficient (338.14 K): 80.1 ± 4 | activity coefficient (343.22 K): 75.3 ± 3.8

Structure (SMILES): C=CCCCCCC [oct-1-ene] + CCCCCCn1cc[n+](C)c1.F[B-](F)(F)F
activity coefficient (318.11 K): 29.4 ± 1.5 | activity coefficient (328.19 K): 28.1 ± 1.4 | activity coefficient (338.14 K): 27.2 ± 1.4 | activity coefficient (348.11 K): 25.8 ± 1.3

Structure (SMILES): CCCCCCCC [octane] + CCCCCCn1cc[n+](C)c1.F[B-](F)(F)F
activity coefficient (303.16 K): 69.6 ± 3.5 | activity coefficient (318.14 K): 62.3 ± 3.1 | activity coefficient (323.27 K): 59.5 ± 3 | activity coefficient (333.11 K): 56 ± 2.8 | activity coefficient (343.09 K): 52.5 ± 2.6

Structure (SMILES): C=CCCCCC [1-heptene] + CCCCn1cc[n+](C)c1.F[B-](F)(F)F
activity coefficient (323.16 K): 52 ± 2.6 | activity coefficient (333.24 K): 50.3 ± 2.5 | activity coefficient (343.15 K): 46.6 ± 2.3 | activity coefficient (353.23 K): 43.2 ± 2.2

Structure (SMILES): C=CCCCCCCCC [1-decene] + CCCCn1cc[n+](C)c1.F[B-](F)(F)F
activity coefficient (323.16 K): 224 ± 11 | activity coefficient (333.17 K): 207 ± 10 | activity coefficient (343.17 K): 190 ± 9.5 | activity coefficient (353.16 K): 180 ± 9

Structure (SMILES): C=CCCCCCC [oct-1-ene] + CCCCn1cc[n+](C)c1.F[B-](F)(F)F
activity coefficient (323.16 K): 88.6 ± 4.4 | activity coefficient (333.24 K): 84.8 ± 4.2 | activity coefficient (343.15 K): 78.8 ± 3.9 | activity coefficient (353.23 K): 74.2 ± 3.7

activity coefficient (323.15 K): 66.7 ± 3.3 | activity coefficient (328.18 K): 63.3 ± 3.2 | activity coefficient (333.2 K): 61 ± 3 | activity coefficient (343.26 K): 54.9 ± 2.8
Structure (SMILES): CCCCCC [hexane] + CCCCn1cc[n+](C)c1.F[B-](F)(F)F

Structure (SMILES): C=CCCCC [hex-1-ene] + CCCCCCn1cc[n+](C)c1.F[B-](F)(F)F
activity coefficient (318.11 K): 13 ± 0.65 | activity coefficient (328.19 K): 12.1 ± 0.61 | activity coefficient (338.17 K): 11.9 ± 0.6 | activity coefficient (348.15 K): 11.4 ± 0.57

Structure (SMILES): CCCCCCCCCC [decane] + CCCCCCn1cc[n+](C)c1.F[B-](F)(F)F
activity coefficient (318.21 K): 129 ± 6.4 | activity coefficient (328.16 K): 115 ± 5.8 | activity coefficient (338.14 K): 110 ± 5.5 | activity coefficient (348.16 K): 104 ± 5.2

Structure (SMILES): C=CCCCC [hex-1-ene] + CCCCn1cc[n+](C)c1.F[B-](F)(F)F
activity coefficient (323.16 K): 30.1 ± 1.5 | activity coefficient (333.15 K): 27.8 ± 1.4 | activity coefficient (343.22 K): 25.7 ± 1.3 | activity coefficient (353.14 K): 23.9 ± 1.2

Structure (SMILES): CCCCCCCCCC [decane] + CCCCn1cc[n+](C)c1.F[B-](F)(F)F
activity coefficient (323.12 K): 620 ± 31 | activity coefficient (343.21 K): 443 ± 22 | activity coefficient (353.16 K): 383 ± 19
